The values below come from ChEMBL document CHEMBL1153127, “p16(INK4a) Peptide mimetics identified via virtual screening” (Bioorg Med Chem Lett, 2010).

Common to all, as to type: protein-complex assay
Test [1] concerns the target Cyclin-dependent kinase 4/cyclin D1 (Homo sapiens, UniProt P11802). Nature of the test: Inhibition of CDK4/Cyclin D1 by FRET assay.
Test [2] deals with CDK6/cyclin D1 (Homo sapiens, UniProt P24385+Q00534). Nature of the test: (§1) Inhibition of CDK6/Cyclin D1 by FRET assay.
In test [3] the target is CDK6/cyclin D1 (Homo sapiens, UniProt Q00534). The test is described as §1.
Sequence of CDK6/cyclin D1 (Homo sapiens, UniProt Q00534) (P24385 whole entry): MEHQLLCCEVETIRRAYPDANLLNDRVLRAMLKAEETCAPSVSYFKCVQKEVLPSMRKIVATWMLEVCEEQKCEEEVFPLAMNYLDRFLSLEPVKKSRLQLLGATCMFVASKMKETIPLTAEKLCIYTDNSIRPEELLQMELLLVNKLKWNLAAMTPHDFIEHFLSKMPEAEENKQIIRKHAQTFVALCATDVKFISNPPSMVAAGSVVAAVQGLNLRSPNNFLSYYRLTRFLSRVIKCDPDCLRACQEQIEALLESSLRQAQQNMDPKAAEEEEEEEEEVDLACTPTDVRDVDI
Sequence of CDK6/cyclin D1 (Homo sapiens, UniProt Q00534) (Q00534 whole entry): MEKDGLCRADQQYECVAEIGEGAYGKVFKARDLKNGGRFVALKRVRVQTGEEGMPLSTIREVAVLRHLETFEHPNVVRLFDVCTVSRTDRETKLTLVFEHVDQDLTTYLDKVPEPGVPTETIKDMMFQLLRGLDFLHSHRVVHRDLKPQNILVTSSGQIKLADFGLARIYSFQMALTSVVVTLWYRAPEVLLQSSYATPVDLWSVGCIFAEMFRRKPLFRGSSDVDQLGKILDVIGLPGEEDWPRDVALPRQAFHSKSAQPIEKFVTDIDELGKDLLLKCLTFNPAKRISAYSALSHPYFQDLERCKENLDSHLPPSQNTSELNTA

Sequence of Cyclin-dependent kinase 4/cyclin D1 (P11802 whole entry): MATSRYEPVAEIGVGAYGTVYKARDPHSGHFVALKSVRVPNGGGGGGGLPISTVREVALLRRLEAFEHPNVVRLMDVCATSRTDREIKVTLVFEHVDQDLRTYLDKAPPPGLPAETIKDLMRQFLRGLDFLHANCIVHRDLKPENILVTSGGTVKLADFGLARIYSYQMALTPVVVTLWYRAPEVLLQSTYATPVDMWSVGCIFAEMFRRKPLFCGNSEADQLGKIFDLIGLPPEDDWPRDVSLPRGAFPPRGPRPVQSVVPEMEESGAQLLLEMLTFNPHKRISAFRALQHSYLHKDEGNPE
Sequence of Cyclin-dependent kinase 4/cyclin D1 (P24385 whole entry, further chain): as the sequence (P24385 whole entry) above
Sequence of CDK6/cyclin D1 (Homo sapiens, UniProt P24385+Q00534) (P24385 whole entry): as above
Sequence of CDK6/cyclin D1 (Homo sapiens, UniProt P24385+Q00534) (Q00534 whole entry): as the sequence (Q00534 whole entry) above

In the case of `COc1cc(NCCN(CC(C)C)CC(C)C)c2ncc(C)cc2c1`, the IC50 in test [1] is 128 µM; against CDK6/cyclin D1 [2], “Not Active”.

In the case of `COc1cc(NCCCN(CCC(C)C)CCC(C)C)c2ncccc2c1`, the IC50 worked out at 162 µM in test [1] and 325 µM at CDK6/cyclin D1 [3].
